# Literature values, collected in patent publication US20090099557A1, “Methods and compositions for optimizing the outcomes of refractive laser surgery of the cornea” (priority 2006, published 2009).
# Experiments:
# epithelial cells [1] = conditions: 18% ethanol for 25 seconds; single cell layers of epithelial cells, in vitro
# epithelial cells [2] = conditions: ethanol-assisted epithelial separation; Invest Opthalmol Vis Sci 43: 2593-2602 (2002); J Cataract Refract Surg 28: 1841-46 (2002)
smiles,measurement,setting,value
CCO [ethanol],toxic effect of the alcohol on epithelial cells,epithelial cells [1],toxic effect
same,toxicity to epithelial cells,epithelial cells [2],toxic to epithelial cells in both a dose- and time-dependent manner
